Reference: US20240059740A1, “CYCLIC PEPTIDES AND USES THEREOF” (PRE[…] INC., priority 2020, published 2024)
Residues, ends and D or L forms follow the SMILES beside them.

Legend:
Assay type in all cases: cell-based, human
uPA (PLAU) mRNA = experiment: Real time RT-PCR, uPA mRNA expression
Excerpt: (§1) The real-time reverse transcription polymerase chain reaction (RT-PCR) uses fluorescent reporter molecules to monitor the production of amplification products during each cycle of the PCR reaction. This combines the nucleic acid amplification and detection steps into one homogeneous assay and use of appropriate chemistries and data analysis eliminates the need for Southern blotting or DNA sequencing for amplicon identification. Its simplicity, specificity and sensitivity, together with its potential for high throughput and the ongoing introduction of new chemistries, more reliable instrumentation and improved protocols, has made real-time RT-PCR the benchmark technology for the detection and/or comparison of RNA levels.’
(§2) In order to detect and quantify the expression of specific genes at mRNA level, real-time reverse transcriptase polymerase chain reaction (Real time RT-PCR) was performed. Total RNA of samples was isolated and purified using the PureLink® RNA Mini Kit (Life technologies). The concentration of total RNA was detected by NanoDrop 2000 Spectrophotometer (Thermo Scientific). The total RNA (2000 ng) was reverse transcribed using the High-Capacity cDNA Reverse Transcription Kit (Applied Biosystems™).
(§3) The primers of target genes were TaqMan™ Gene Expression Assay for human PLAU (Hs01547054_m1), MMP-2 (Hs01548727_m1), MMP-9 (Hs00957562_m1), Snail-1 (Hs00195591_m1), Snail-2 (Hs00161904_m1), N-cadherin (Hs00983056_m1) and Twist (Hs01675818_s1). Relative quantification was done by reference to 18S ribosomal RNA (18S rRNA) and analysed using the comparative critical threshold (Ct) method
(§4) The mRNA expression of MMPs was measured using qRT-PCR. This was tested three independent times; the results are shown in Tables 9, 10 and 11 for U251, U87 cells and O81024 cells respectively. Results are reported as percent of the control cells (no treatment). Both MMP-2 and uPA were decreased in U251 by SEQ ID NO.1.

Snail-2 mRNA = experiment: Real time RT-PCR, Snail-2 mRNA expression
Excerpt: as §1, §2, §3, §4
Epithelial-mesenchymal transition (EMT) is the process by which epithelial cells acquire a migratory (metastatic) phenotype and so EMT is associated with cancer metastasis, cancer cell stemness, chemoresistance and immune resistance. Therefore, the determination of the mRNA expression of EMT markers is a valuable tool to evaluate invasion potential of cancer cells.
The ‘Snail’ superfamily is involved in cell differentiation and survival, two processes central in cancer research. Snail-1 has a pivotal role in the regulation of epithelial-mesenchymal transition (EMT) and Snail-1 expression is associated with poor prognosis in metastatic cancer, and tumours with elevated Snail-1 expression are harder to treat. […]

081024 cells = experiment: MTT assay for cytotoxicity, 081024 oncospheres; conditions: % viability of control
Excerpt: The MTT (3-[4.5-dimethylthiazol-2-yl]-2,5═diphenyl tetrazolium bromide) assay is based on a process undertaken by living cells, involving the conversion of MTT into formazan crystals. This assay is used routinely to measure the in vitro cytotoxic effects of drugs on cell lines or primary patient cells (Van Meerloo et al., 2011). The MTT assay measures mitochondrial activity, so in some instances where the peptide activates mitochondrial response, the results appear to increase the number of cells present i.e. >100% cell viability.
The aim of this experiment was to identify peptide concentrations that are active on living cells and cell viability was assessed.
The glioblastoma multiforme (GBM) cell lines used were U87 and U251 cells and patient derived cells grown as oncospheres (081024 cells). Human adherent GBM cell lines U87 and U251 were cultured in RPMI medium (Life Technologies Melbourne Australia) supplemented with 5% v/v FBS, 100 U/mL penicillin and 100 μg/mL streptomycin. 081024 cells were cultrured in NeuroCult™ NS-A Proliferation medium with 0.2% (v/v) heparin, 20 ng/mL EGF and 10 ng/mL FGF.
8×10^3 U87 and 7×10^3 U251 cells per well were seeded in 96 well plates in 200 μL serum-containing RPMI medium and incubated at 37° C. with 5% CO2 for 24 hours. After one wash with serum-free medium, 100 μL serum-free medium with different concentration of peptide SEQ ID NO:1 was added to each well. After 48 hours incubation, 10 μL of 0.5 mg/mL MTT was added and incubated for 2 hours at 37° C. Formazan crystals were dissolved by 200 μL/well dimethyl sulfoxide (DMSO) and shaking for 15 minutes. The UV absorbance was read with an iMark™ microplate absorbance reader at 595 nm (Bio-Rad Laboratories). Background absorbance was subtracted and results expressed as the % viability of control (untreated cells).

[1] = 081024 cells, baseline expression level = 1
[2] = U87 cells, baseline expression level = 1

With `CC(C)C[C@@H]1NC(=O)[C@H](C)NC(=O)[C@@H](NC(=O)[C@@H]2CCCN2C(=O)[C@@H](N)CC(C)C)CSSC(C)(C)CNC(=O)CC[C@@H](C(=O)N[C@@H](CCCNC(=N)N)C(N)=O)NC(=O)[C@H](CC(=O)O)NC(=O)[C@H](CC(N)=O)NC1=O` [SEQ ID NO: 1, Leu-Pro-c(SSA*-Ala-Leu-Asn-Asp-Glu)-Arg-NH2] (HELM PEPTIDE1{L.P.C.A.L.N.D.E.R.[am]}|CHEM1{[CC(C)(CN[*:2])S[*:1]]}$PEPTIDE1,CHEM1,3:R3-1:R1|PEPTIDE1,CHEM1,8:R3-1:R2$$$V2.0; N-terminus assumed) the “mRNA expression, uPA” value (uPA (PLAU) mRNA; [1]) was 0.85, the “mRNA expression, uPA” value (uPA (PLAU) mRNA; [2]) was 1.19 and the “mRNA expression, uPA” value (uPA (PLAU) mRNA; U251 cells, relative to control (no treatment), 18S rRNA reference, listed as SEQ ID NO. 1) was 0.63. For the same molecule, the “mRNA expression, uPA” value (uPA (PLAU) mRNA; U251 cells, relative to control (no treatment), 18S rRNA reference, listed as SEQ ID NO.1) was “decreased”, the “mRNA expression, Snail-2” value (Snail-2 mRNA; [1]) was 1.01 and the “mRNA expression, Snail-2” value (Snail-2 mRNA; [2]) was 0.94. For the same molecule, the “mRNA expression, Snail-2” value (Snail-2 mRNA; U251 cells, relative to control (no treatment)) was 0.75, the “mRNA expression, Snail-2 (in words)” value (Snail-2 mRNA; cell line not specified) was “non-statistical decrease in expression” and the Cell viability (081024 cells; 1 μM) was 104.2%. It also gave a Cell viability (081024 cells; 5 μM) of 106.8%, a Cell viability (081024 cells; 10 μM) of 106.7% and a Cell viability (081024 cells; 50 μM) of 106.5%. It also gave a Cell viability (081024 cells; 100 μM) of 106.9%, a Cell viability (081024 cells; 500 μM) of 99.68% and a Cell viability (081024 cells; 1 mM) of 89.58%.
